Experimental data taken from patent publication US8211436B2, “Anticancer vaccine and diagnostic methods and reagents” (University of Pittsburgh—Of the Commonwealth System of …, priority 2001, dated 2012).

Columns and labels:
MS-A2/CD80 tumor = assay: CTL assay, peptide-sensitized T cells against MS-A2/CD80; type: cell-based, human; conditions: SCCHN Patient A T cells, target MS-A2/CD80
Procedure: (§1) Stimulating CD8^+ T cells from breast cancer and SCCHN patients with cyclin B1 peptides in vitro. PBMCs from cancer patients were X-irradiated at 3000 Rads, loaded with […] of the indicated peptides for 2-4 hours, and mixed with autologous PBMCs in the presence of 20 U/ml IL-2 (DuPont). The T cell cultures were fed every 3-4 days with 10 U/ml IL-2, and restimulated every 10-12 days, if necessary, using peptide-loaded autologous irradiated PBMCs. All T cell cultures were grown in RPMI medium (ICN, Costa Mesa, Calif.) supplemented with 10% human AB sera (Gemini Products, Calabasas, Calif.), L-glutamine, and penicillin/streptomycin (Life Technologies).
(§2) Cytotoxicity assays. 1-2×10^6 target cells were labeled with 50 mCi of Na2^51CrO4 (Amersham, Arlington Heights, Ill.) for 90 minutes at 37° C. The labeled cells were then washed three times and plated at 1×10^3 cells/well in a 96-well V-bottom plate (Costar, Cambridge, Mass.) with various numbers of effector T cells. […] Supernatants were harvested using a Skatron harvesting press (Skatron Instruments, Sterling, Va.) and counted on a Cobra II series auto gamma counting system (Packard, Meriden, Conn.). […] Percent specific lysis was calculated from the following formula: % specific lysis=100×(experimental release−spontaneous release)/(maximum release−spontaneous release).

[1] = tested on: PBMCs from HLA-A*0201 SCCHN patients; assay: IFN-γ ELISPOT, PBMCs of SCCHN patients with cyclin B1 peptides; type: cell-based, human; conditions: for peptide-specific T cells, IFN-γ ELISPOT: SCCHN Patient A, absence of any in vitro stimulation; for HLA Class I-restricted T cell response, IFN-γ ELISPOT: SCCHN Patient B; for T cell response, IFN-γ ELISPOT: SCCHN Patient D; for blocking of the response with anti-Class I antibody: SCCHN Patient C
Procedure: (§3) IFN-γ ELISPOT Assays. IFN-g ELISPOT assays were conducted as previously described (Herr et al., J. Immunol. Methods, 191(2), 131-42 (1996)). Briefly, nitrocellulose plates (Millipore, Bedford, Mass.) were coated with the anti-IFN-γ capture mAb 1-D1K (MabTech, Stockholm, Sweden) overnight at 4° C. For assays using dendritic cells as APCs, DCs were loaded with […] of the indicated peptides for 2-6 hrs, and mixed with autologous T cells at a DC:T ratio of 1:10 for 20 hours at 37° C. For assays using autologous PBMCs as APCs, PBMCs were irradiated at 3000 Rads, loaded with […] of peptides for 4 hours, and mixed with autologous T cells at an APC:T ratio of 1:5 for 40 hours at 37° C. The T cells were seeded at 3×10^3-1×10^5 cells/well. All assays were done in serum-free AIM-V medium (Gibco Life Technologies, Grand Island, N.Y.). The plates were then washed in PBS+0.1% Tween and stained with anti-IFN-γ mAb 7-B6-1 (Mabtech) for 2 hours at 37° C. The plates were washed, and the avidin-peroxidase complex (Vectastain ABC Kit, Vector Laboratories) was added to the plates for 1 hour. The plates were then developed using AEC (Sigma) substrate, and spots were quantified microscopically with an inverted phase-contrast microscope (Carl Zeiss, Hallbergmoos, Germany) along with a computer-assisted image analysis system (KS ELISPOT). For HLA Class I blocking experiments, the W6/32 antibody was added to the APCs for 30-45 minutes prior to the incubation with the T cells.
as §1

[2] = tested on: PBMCs from HLA-A2+ breast cancer patients; assay: IFN-γ ELISPOT, PBMCs of breast cancer patients with cyclin B1 peptides; type: cell-based, human
Procedure: as §3, §1

[3] = tested on: CD8+ T cells from an HLA-A*0201 healthy donor; assay: IFN-γ ELISPOT, naive CD8+ T cells of a healthy donor primed in vitro to synthetic cyclin B1 peptides; type: cell-based, human; conditions: for antigen-specific IFN-γ secretion by CD8+ T cells: healthy HLA-A2.1+ donor, after several rounds of restimulation (fourth)
Procedure: as §3
(§4) Priming naïve CD8^+ T cells from a healthy donor to cyclin B1 peptides in vitro. Naïve CD8^+ T cells and in vitro generated dendritic cells were purified as described above in Example 1. 2×10^4 dendritic cells were loaded overnight with […]/well peptide in 96-well U-bottom plates (Falcon, Franklin lakes, NJ) and mixed with 2×10^5 autologous naïve CD8^+ T cells the next day in the presence of 2 ng/ml IL-1b (R & D Systems, Minneapolis, Minn.), 20 U/ml IL-2 (DuPont, Wilmington, Del.), and 10 U/ml IL-4 (Schering Plough). Depending on growth kinetics, T cells were fed every 3-4 days with 10 U/ml IL-2 and 5 U/ml IL-4. T cells were restimulated every 7-10 days using peptide-loaded autologous macrophages.

MS-A2 tumor = assay: CTL assay, peptide-sensitized T cells against MS-A2; type: cell-based, human; parameters: killing of the original tumor by peptide-specific T cells: dose or concentration left out as unconfirmed
Procedure: as §4
Stimulating CD8^+ T cells from breast cancer and SCCHN patients with cyclin B1 peptides in vitro. PBMCs from cancer patients were X-irradiated at 3000 Rads, loaded with […] of the indicated peptides for 2-4 hours, and mixed with autologous PBMCs in the presence of 20 U/ml IL-2 (DuPont). […]
Cytotoxicity assays. […] Supernatants were harvested using a Skatron harvesting press (Skatron Instruments, Sterling, Va.) and counted on a Cobra II series auto gamma counting system (Packard, Meriden, Conn.). […] Percent specific lysis was calculated from the following formula: % specific lysis=100×(experimental release−spontaneous release)/(maximum release−spontaneous release).

K562 = assay: CTL assay, peptide-sensitized T cells against K562 (LAK control); type: cell-based, human; conditions: SCCHN Patient A T cells, target K562
Procedure: as §1, §2

HLA-A2.1 = biological target: T1, HLA-A2.1 (Homo sapiens, UniProt P04439, D140Y/D185E/D98H/E176V/E277Q/G131W/G231S/I119V/I121R/I166T/I218V/L300P/L318F/N151K/N90K/P208A/P217A/Q86G/Q94H/R138H/R169H/T345S); assay: HLA Class I stabilization assay on T2 cells; conditions: 20 mg/ml peptide, 18-20 hours, MA2.1 staining, >1 indicates binding
T1 construct: Peptide-induced stabilization of HLA-A2.1 molecules on T2 cells; endogenous in cells; host or cells: T2 cells
Procedure: HLA Class I stabilization assays. Peptide-induced stabilization of HLA-A2.1 molecules on T2 cells was done as previously described (Zeh et al., Hum. Immunol., 39(2), 79-86 (1994)). 2×10^5 T2 cells were incubated with […] of the indicated synthetic peptides in […] human B2m (Calbiochem, La Jolla, Calif.) for 18-20 hours at room temperature. The cells were then stained with the HLA-A2.1-specific antibody, MA2.1, for 45 minutes, washed with FACS Buffer (PBS, 5% FBS, and 0.01% sodium azide), and stained with a secondary FITC-conjugated anti-IgG antibody (Biosource International, Camarillo, Calif.). The cells were fixed in 4% formaldehyde prior to flow cytometry analysis. The negative control consisted of T2 cells without peptide. […] (SEQ ID NO:11). Flow cytometric analysis was done using a FACScan flow cytometer (Becton-Dickinson).

[4] = breast cancer Patient A, one in vitro stimulation
[5] = breast cancer Patient C, no in vitro stimulation
[6] = breast cancer Patient D, no in vitro stimulation

Sequence | HLA Class I-restricted T cell response, IFN-γ ELISPOT [1] | T cell response, IFN-γ ELISPOT [1] | T cell response, IFN-γ ELISPOT [2, 4] | T cell response, IFN-γ ELISPOT [2, 6] | antigen-specific IFN-γ secretion by CD8+ T cells [3] | HLA-A2.1 Binding (MFI of T2 cells loaded with peptide / MFI of T2 cells with no peptide) (HLA-A2.1) [X-Fold increase] | other results
AGYLMELCC (cyclin-derived polypeptide) [SEQ ID NO:4, tumor-derived cyclin B1 9-mer peptide] | HLA Class I-restricted T cell responses | appeared specific | strong HLA Class I-restricted secondary T cell responses | strong HLA Class I-restricted T cell responses | detected | 1.61 | lysis of tumor by T cells sensitized to the peptide (MS-A2/CD80 tumor): able to lyse; peptide-specific T cells, IFN-γ ELISPOT [1]: peptide-specific T cells also were detected; T cell response, IFN-γ ELISPOT [2, 5]: peptide-specific HLA Class I-restricted T cell responses; T cell response, IFN-γ ELISPOT ([2]; breast cancer Patients E and F): did not respond; blocking of the T cell response by anti-Class I antibody W6/32 ([3]; healthy donor): blocked; lysis of tumor by T cells sensitized to the peptide (MS-A2 tumor; SCCHN Patient A T cells, target MS-A2): to a lesser extent; killing of the original tumor by peptide-specific T cells (MS-A2 tumor; healthy donor T cells primed with high peptide concentration): unable to kill the original tumor; lysis by T cells sensitized to the peptide (K562): not
AGYLMELCFA (cyclin-derived polypeptide) [SEQ ID NO:6, tumor-derived cyclin B1 10-mer peptide] |  |  |  |  | not | 2.08 | 
AGYLMELCV (cyclin-derived polypeptide) [SEQ ID NO:1, tumor-derived cyclin B1 9-mer peptide] | not |  |  |  | not | 1.60 | T cell response, IFN-γ ELISPOT ([2]; breast cancer Patient B (HLA-A*0206), two in vitro stimulations): weak secondary response
AGYLMELCF (cyclin-derived polypeptide) [SEQ ID NO:3, tumor-derived cyclin B1 9-mer peptide] | HLA Class I-restricted T cell responses |  |  |  |  | 1.42 | 
AGYLMELCMA (cyclin-derived polypeptide) [SEQ ID NO:5, tumor-derived cyclin B1 10-mer peptide] |  | appeared specific |  |  | not | 1.58 | 
AGYLMELCM (cyclin-derived polypeptide) [SEQ ID NO:2, tumor-derived cyclin B1 9-mer peptide] | not |  |  |  | not | 1.48 | blocking of the response with anti-Class I antibody [1]: could be blocked
ILKEPGSHV (HIV-POL-derived polypeptide) [reference compound] |  |  | no recognition | lower responses | not |  | 
AKYLMELTML (cyclin-derived polypeptide) [SEQ ID NO:8, human (HeLa) cyclin B1 peptide from the database] |  |  | strong HLA Class I-restricted secondary T cell responses |  |  | 2.25 | blocking of the response with anti-Class I antibody [1]: could be blocked
AKYLMELTM (cyclin-derived polypeptide) [SEQ ID NO:7, human (HeLa) cyclin B1 peptide from the database] | HLA Class I-restricted T cell responses | appeared specific | strong HLA Class I-restricted secondary T cell responses | lower responses |  | 2.28 | lysis of tumor by T cells sensitized to the peptide (MS-A2/CD80 tumor): able to lyse; peptide-specific T cells, IFN-γ ELISPOT [1]: peptide-specific T cells also were detected; T cell response, IFN-γ ELISPOT [2, 5]: peptide-specific HLA Class I-restricted T cell responses; blocking of the response by anti-MHC Class I antibody ([2]; breast cancer Patient D): blocked; T cell response, IFN-γ ELISPOT ([2]; breast cancer Patients E and F): did not respond
